ChEMBL document CHEMBL3872257, “Multitarget drug design strategy against Alzheimer's disease: Homoisoflavonoid Mannich base derivatives serve as acetylcholinesterase and monoamine oxidase B dual inhibitors with multifunctional properties” (Bioorg Med Chem, 2017)

Target: T1, Amine oxidase [flavin-containing] B (Homo sapiens, UniProt P27338)
T1 sequence (P27338 whole entry): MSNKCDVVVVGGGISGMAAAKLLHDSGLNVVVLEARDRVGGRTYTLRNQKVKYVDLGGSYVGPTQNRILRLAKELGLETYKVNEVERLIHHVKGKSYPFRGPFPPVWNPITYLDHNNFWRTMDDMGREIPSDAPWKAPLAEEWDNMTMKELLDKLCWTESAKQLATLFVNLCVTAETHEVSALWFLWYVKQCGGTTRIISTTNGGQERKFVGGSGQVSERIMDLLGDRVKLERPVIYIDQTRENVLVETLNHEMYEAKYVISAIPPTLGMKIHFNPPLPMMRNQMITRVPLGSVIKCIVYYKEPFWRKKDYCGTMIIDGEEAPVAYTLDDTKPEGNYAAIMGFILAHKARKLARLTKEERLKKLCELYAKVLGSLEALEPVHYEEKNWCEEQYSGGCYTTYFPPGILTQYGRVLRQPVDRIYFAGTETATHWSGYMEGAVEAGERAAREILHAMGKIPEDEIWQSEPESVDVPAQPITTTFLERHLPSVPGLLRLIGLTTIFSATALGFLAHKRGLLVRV
Details: not given; call rule not given here

`CCN(Cc1ccc(/C=C2\COc3cc(OC)c(OC)cc3C2=O)cc1O)Cc1ccccc1N(C)C` and `CCN(Cc1ccccc1)Cc1ccc(/C=C2\COc3cc(OC)c(OC)cc3C2=O)cc1O` are within 1.5-fold of each other in IC50: 1340 nM for the first, 1720 nM for the second.

`COc1ccccc1CN(C)Cc1ccc(/C=C2\COc3cc(OC)c(OC)cc3C2=O)cc1O` and `COc1cc2c(cc1OC)C(=O)/C(=C/c1ccc(CN(C)Cc3ccccc3)c(O)c1)CO2` are within 1.5-fold of each other in IC50: 1030 nM for the first, 1150 nM for the second.

`COc1cc2c(cc1OC)C(=O)/C(=C/c1ccc(CN3CCN(C)CC3)c(O)c1)CO2` gave an IC50 of 915 nM.

Tested on: not listed separately
Assay: Metal chelating activity assessed as zinc-compound complex formation at 37.5 uM in presence of ZnCl2 measured after 30 mins by UV-vis spectrometry
Type: physicochemical
Details: 0.5 h

In the case of `CCN(Cc1ccc(/C=C2\COc3cc(OC)c(OC)cc3C2=O)cc1O)Cc1ccccc1N(C)C`, the Activity is reported as “Active”.

Target: Acetylcholinesterase (Electrophorus electricus, UniProt O42275)
Assay: Inhibition of Electrophorus electricus AChE using acetylthiocholine iodide as substrate measured after 15 mins by Ellman's method
Details: not given

Acetylcholinesterase, sequence (O42275 whole entry): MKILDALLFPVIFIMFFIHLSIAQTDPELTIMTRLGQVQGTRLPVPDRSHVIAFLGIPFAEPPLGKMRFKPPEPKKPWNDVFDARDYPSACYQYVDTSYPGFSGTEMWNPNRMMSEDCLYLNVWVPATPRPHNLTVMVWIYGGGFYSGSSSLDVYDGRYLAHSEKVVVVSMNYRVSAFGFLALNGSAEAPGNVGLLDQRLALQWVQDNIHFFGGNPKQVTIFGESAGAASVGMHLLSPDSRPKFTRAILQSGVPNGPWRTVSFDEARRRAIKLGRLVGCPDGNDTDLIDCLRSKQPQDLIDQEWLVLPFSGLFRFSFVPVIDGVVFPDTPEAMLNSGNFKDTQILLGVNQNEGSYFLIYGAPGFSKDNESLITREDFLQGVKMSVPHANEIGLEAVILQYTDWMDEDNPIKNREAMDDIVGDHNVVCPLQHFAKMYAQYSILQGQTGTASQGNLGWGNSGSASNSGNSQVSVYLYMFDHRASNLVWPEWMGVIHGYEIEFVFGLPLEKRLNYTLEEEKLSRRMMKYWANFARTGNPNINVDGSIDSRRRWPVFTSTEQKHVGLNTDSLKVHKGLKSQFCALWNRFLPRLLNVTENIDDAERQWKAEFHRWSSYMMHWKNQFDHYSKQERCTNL

Going from `CCN(Cc1ccc(/C=C2\COc3cc(OC)c(OC)cc3C2=O)cc1O)Cc1ccccc1N(C)C` to `CCN(Cc1ccccc1)Cc1ccc(/C=C2\COc3cc(OC)c(OC)cc3C2=O)cc1O`, the IC50 falls from 18100 nM to 364 nM (50-fold).

First: COc1ccccc1CN(C)Cc1ccc(/C=C2\COc3cc(OC)c(OC)cc3C2=O)cc1O
Second: COc1cc2c(cc1OC)C(=O)/C(=C/c1ccc(CN(C)Cc3ccccc3)c(O)c1)CO2
The IC50 of the first is 8.2-fold higher: 16400 nM for the first, 1990 nM for the second. The second is the more potent here.

In the case of `COc1cc2c(cc1OC)C(=O)/C(=C/c1ccc(CN3CCN(C)CC3)c(O)c1)CO2`, the IC50 is reported as 6260 nM.

Tested on: not listed separately
Assay: Antioxidant activity assessed as trolox equivalent of […]-induced radical scavenging activity preincubated for 15 mins followed by AAPH addition measured every minute for 120 mins by ORAC fluorescein assay
Type: functional
Details: not given

Compared with `CCN(Cc1ccc(/C=C2\COc3cc(OC)c(OC)cc3C2=O)cc1O)Cc1ccccc1N(C)C`, `CCN(Cc1ccccc1)Cc1ccc(/C=C2\COc3cc(OC)c(OC)cc3C2=O)cc1O` is higher in Activity: 0.97 equiv for the first, 1.13 equiv for the second.

Going from `COc1ccccc1CN(C)Cc1ccc(/C=C2\COc3cc(OC)c(OC)cc3C2=O)cc1O` to `COc1cc2c(cc1OC)C(=O)/C(=C/c1ccc(CN(C)Cc3ccccc3)c(O)c1)CO2`, the Activity falls from 1.78 equiv to 1.57 equiv.

With `COc1cc2c(cc1OC)C(=O)/C(=C/c1ccc(CN3CCN(C)CC3)c(O)c1)CO2` the Activity was 2.11 equiv.

Target: Amyloid-beta precursor protein (Homo sapiens) (UniProt P05067)
Assay: Inhibition of self-mediated aggregation of amyloid beta (1 to 42 residues) (unknown origin) at 25 uM incubated for 24 hrs by Thioflavin T fluorescence assay relative to control
Details: not given

Amyloid-beta precursor protein (Homo sapiens), sequence (P05067 whole entry, the tested form may be a part): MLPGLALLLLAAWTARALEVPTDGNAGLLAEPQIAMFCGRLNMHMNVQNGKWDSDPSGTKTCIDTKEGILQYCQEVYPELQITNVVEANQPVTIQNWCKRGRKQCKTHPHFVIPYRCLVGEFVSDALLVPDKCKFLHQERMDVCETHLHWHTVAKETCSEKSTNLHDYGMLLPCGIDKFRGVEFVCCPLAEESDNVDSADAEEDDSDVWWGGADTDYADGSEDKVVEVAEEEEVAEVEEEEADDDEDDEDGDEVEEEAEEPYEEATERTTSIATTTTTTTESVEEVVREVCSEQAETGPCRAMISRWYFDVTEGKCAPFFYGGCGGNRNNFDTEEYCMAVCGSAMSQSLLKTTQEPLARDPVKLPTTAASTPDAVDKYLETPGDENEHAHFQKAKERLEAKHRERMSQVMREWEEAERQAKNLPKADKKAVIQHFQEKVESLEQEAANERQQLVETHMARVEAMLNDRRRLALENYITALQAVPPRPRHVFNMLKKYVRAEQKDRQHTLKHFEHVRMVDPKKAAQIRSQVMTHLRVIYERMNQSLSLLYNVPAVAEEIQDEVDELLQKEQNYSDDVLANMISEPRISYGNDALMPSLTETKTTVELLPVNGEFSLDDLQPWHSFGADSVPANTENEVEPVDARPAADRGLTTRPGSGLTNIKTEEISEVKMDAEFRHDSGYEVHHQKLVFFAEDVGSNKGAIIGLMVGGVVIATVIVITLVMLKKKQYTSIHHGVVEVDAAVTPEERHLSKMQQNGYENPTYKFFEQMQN

First: CCN(Cc1ccc(/C=C2\COc3cc(OC)c(OC)cc3C2=O)cc1O)Cc1ccccc1N(C)C
Second: CCN(Cc1ccccc1)Cc1ccc(/C=C2\COc3cc(OC)c(OC)cc3C2=O)cc1O
The inhibition of the first is higher: 59.6% for the first, 32.7% for the second.

First: COc1ccccc1CN(C)Cc1ccc(/C=C2\COc3cc(OC)c(OC)cc3C2=O)cc1O
Second: COc1cc2c(cc1OC)C(=O)/C(=C/c1ccc(CN(C)Cc3ccccc3)c(O)c1)CO2
The inhibition of the first is higher: 37.8% for the first, 7.7% for the second.

For `COc1cc2c(cc1OC)C(=O)/C(=C/c1ccc(CN3CCN(C)CC3)c(O)c1)CO2`, the inhibition was 41.9%.

Species on record: Homo sapiens
Assay: Selectivity index, ratio of IC50 for human recombinant MAO-A to IC50 for human recombinant MAO-B
Details: not given

`CCN(Cc1ccc(/C=C2\COc3cc(OC)c(OC)cc3C2=O)cc1O)Cc1ccccc1N(C)C` and `CCN(Cc1ccccc1)Cc1ccc(/C=C2\COc3cc(OC)c(OC)cc3C2=O)cc1O` cannot be ordered by Ratio IC50: > 14.9 for the first, > 11.6 for the second.

`COc1ccccc1CN(C)Cc1ccc(/C=C2\COc3cc(OC)c(OC)cc3C2=O)cc1O` and `COc1cc2c(cc1OC)C(=O)/C(=C/c1ccc(CN(C)Cc3ccccc3)c(O)c1)CO2` cannot be ordered by Ratio IC50: > 19.4 for the first, > 17.4 for the second.

In the case of `COc1cc2c(cc1OC)C(=O)/C(=C/c1ccc(CN3CCN(C)CC3)c(O)c1)CO2`, the Ratio IC50 is reported as > 21.9.

Tested on: not listed separately
Assay: Metal chelating activity assessed as aluminium-compound complex formation at 37.5 uM in presence of AlCl3 measured after 30 mins by UV-vis spectrometry
Type: physicochemical
Details: 0.5 h

With `CCN(Cc1ccc(/C=C2\COc3cc(OC)c(OC)cc3C2=O)cc1O)Cc1ccccc1N(C)C` the Activity was “Active”.

Tested on: not listed separately
Assay: Inhibition of copper-mediated aggregation of amyloid beta (1 to 42 residues) (unknown origin) at 25 uM incubated for 24 hrs by thioflavin-T fluorescence assay relative to control
Type: physicochemical
Details: not given

Compared with `CCN(Cc1ccc(/C=C2\COc3cc(OC)c(OC)cc3C2=O)cc1O)Cc1ccccc1N(C)C`, `CCN(Cc1ccccc1)Cc1ccc(/C=C2\COc3cc(OC)c(OC)cc3C2=O)cc1O` is lower in “inhibition (INH)” value: 79.9% for the first, 49.9% for the second.

First: COc1ccccc1CN(C)Cc1ccc(/C=C2\COc3cc(OC)c(OC)cc3C2=O)cc1O
Second: COc1cc2c(cc1OC)C(=O)/C(=C/c1ccc(CN(C)Cc3ccccc3)c(O)c1)CO2
The “inhibition (INH)” value of the first is higher: 67.8% for the first, 42.6% for the second.

In the case of `COc1cc2c(cc1OC)C(=O)/C(=C/c1ccc(CN3CCN(C)CC3)c(O)c1)CO2`, the “inhibition (INH)” value is reported as 40.5%.

Target: Butyrylcholinesterase (Rattus norvegicus) (UniProt Q9JKC1)
Assay: Inhibition of rat serum BuChE at 50 uM measured after 15 mins by Ellman's method relative to control
Details: not given

Butyrylcholinesterase (Rattus norvegicus), sequence (Q9JKC1 as listed by the source): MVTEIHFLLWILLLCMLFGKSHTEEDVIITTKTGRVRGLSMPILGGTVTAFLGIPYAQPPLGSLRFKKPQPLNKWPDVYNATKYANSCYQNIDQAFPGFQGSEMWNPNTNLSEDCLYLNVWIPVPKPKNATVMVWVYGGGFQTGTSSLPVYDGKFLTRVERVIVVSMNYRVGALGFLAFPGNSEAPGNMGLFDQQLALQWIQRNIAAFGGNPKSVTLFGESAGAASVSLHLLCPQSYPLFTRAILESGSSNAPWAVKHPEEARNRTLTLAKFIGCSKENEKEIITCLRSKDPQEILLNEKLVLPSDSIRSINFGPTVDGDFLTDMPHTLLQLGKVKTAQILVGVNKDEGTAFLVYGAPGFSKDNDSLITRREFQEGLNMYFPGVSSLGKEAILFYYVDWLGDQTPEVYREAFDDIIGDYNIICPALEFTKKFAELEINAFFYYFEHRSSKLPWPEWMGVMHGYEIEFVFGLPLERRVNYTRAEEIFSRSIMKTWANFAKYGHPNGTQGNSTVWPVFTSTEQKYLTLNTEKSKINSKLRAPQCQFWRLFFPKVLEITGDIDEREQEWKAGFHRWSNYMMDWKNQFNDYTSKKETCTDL

Compared with `CCN(Cc1ccc(/C=C2\COc3cc(OC)c(OC)cc3C2=O)cc1O)Cc1ccccc1N(C)C`, `CCN(Cc1ccccc1)Cc1ccc(/C=C2\COc3cc(OC)c(OC)cc3C2=O)cc1O` is lower in inhibition: 44.6% for the first, < 5% for the second.

Compared with `COc1ccccc1CN(C)Cc1ccc(/C=C2\COc3cc(OC)c(OC)cc3C2=O)cc1O`, `COc1cc2c(cc1OC)C(=O)/C(=C/c1ccc(CN(C)Cc3ccccc3)c(O)c1)CO2` is lower in inhibition: 11.2% for the first, < 5% for the second.

With `COc1cc2c(cc1OC)C(=O)/C(=C/c1ccc(CN3CCN(C)CC3)c(O)c1)CO2` the inhibition was < 5%.

Tested on: not listed separately
Assay: Metal chelating activity assessed as copper-compound complex formation at 37.5 uM in presence of CuCl2 measured after 30 mins by UV-vis spectrometry
Type: physicochemical
Details: 0.5 h

With `CCN(Cc1ccc(/C=C2\COc3cc(OC)c(OC)cc3C2=O)cc1O)Cc1ccccc1N(C)C` the Activity was “Active”.

Tested on: not listed separately
Assay: Permeability of the compound at 100 ug/ml after 18 hrs by PAMPA assay
Type: ADME
Details: read-out: permeability

`CCN(Cc1ccc(/C=C2\COc3cc(OC)c(OC)cc3C2=O)cc1O)Cc1ccccc1N(C)C` showed a Papp at 18 h, 100 ug/ml of 10.5 ×10⁻⁶ cm/s.

Target: T2, Amine oxidase [flavin-containing] A (Homo sapiens, UniProt P21397)
T2 sequence (P21397 whole entry): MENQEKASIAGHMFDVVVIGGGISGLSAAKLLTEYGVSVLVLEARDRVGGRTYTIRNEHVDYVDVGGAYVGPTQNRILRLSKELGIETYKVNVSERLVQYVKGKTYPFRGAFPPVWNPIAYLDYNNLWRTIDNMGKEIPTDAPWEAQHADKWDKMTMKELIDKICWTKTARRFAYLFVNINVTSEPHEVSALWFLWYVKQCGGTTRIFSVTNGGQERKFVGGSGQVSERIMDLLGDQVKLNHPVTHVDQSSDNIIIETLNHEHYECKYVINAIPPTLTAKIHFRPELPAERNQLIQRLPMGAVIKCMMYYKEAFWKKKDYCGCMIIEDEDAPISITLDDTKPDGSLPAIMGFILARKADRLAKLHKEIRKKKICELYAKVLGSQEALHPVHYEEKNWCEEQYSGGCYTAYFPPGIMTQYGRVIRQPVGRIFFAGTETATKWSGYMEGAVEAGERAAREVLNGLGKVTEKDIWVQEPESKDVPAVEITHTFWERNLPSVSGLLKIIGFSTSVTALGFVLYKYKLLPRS
Assay: Inhibition of human recombinant MAO-A using kynuramine as substrate at 20 uM measured after 30 mins by fluorescence assay relative to control
Details: 0.5 h

Compared with `CCN(Cc1ccc(/C=C2\COc3cc(OC)c(OC)cc3C2=O)cc1O)Cc1ccccc1N(C)C`, `CCN(Cc1ccccc1)Cc1ccc(/C=C2\COc3cc(OC)c(OC)cc3C2=O)cc1O` is lower in inhibition: 28.3% for the first, 15% for the second.

First: COc1ccccc1CN(C)Cc1ccc(/C=C2\COc3cc(OC)c(OC)cc3C2=O)cc1O
Second: COc1cc2c(cc1OC)C(=O)/C(=C/c1ccc(CN(C)Cc3ccccc3)c(O)c1)CO2
The inhibition of the first is higher: 12.3% for the first, 3.4% for the second.

For `COc1cc2c(cc1OC)C(=O)/C(=C/c1ccc(CN3CCN(C)CC3)c(O)c1)CO2`, the inhibition was 40.5%.

Tested on: not listed separately
Assay: Metal chelating activity assessed as iron-compound complex formation at 37.5 uM in presence of FeSO4 measured after 30 mins by UV-vis spectrometry
Type: physicochemical
Details: 0.5 h

In the case of `CCN(Cc1ccc(/C=C2\COc3cc(OC)c(OC)cc3C2=O)cc1O)Cc1ccccc1N(C)C`, the Activity is reported as “Active”.
